These compounds were tested on TEAD-dependent transcription (assay: Inhibitor activity against TEAD-dependent transcription in a cell-based reporter assay (MSTO-211H+12XGTIIC luciferase)). Conditions: Homo sapiens; MSTO-211H+12XGTIIC cells, 24 hours incubation, luciferase luminescence normalized to cell viability fluorescence, geometric mean; read-out: MSTO-211H GMean IC50 (uM) Cell Assay Reporter Cell Variant: TEAD.
From the text: Determine Inhibitor Activity Against TEAD-Dependent Transcription in a Cell-Based Reporter Assay
The human mesothelioma cell line MSTO-211H was stably transfected with a pGL4.21 plasmid containing a synthetic promoter with 12 copies of the GTIIC TEAD response element that drives the expression of a luciferase reporter gene^1 using Lipofectamine transfection reagent (Thermo Fisher). Transfected cells were selected using puromycin and single cell clones expressing this construct (referred to as MSTO-211H+12XGTIIC) were generated by limiting dilution. MSTO-211H cells was characterized by genetic alterations in key components of the Hippo pathway^2, resulting in up-regulation of YAP/TEAD-mediated transcription. […] To evaluate TEAD inhibitors, the MSTO-211H+12XGTIIC cell line was seeded in a 96-well plate in 50 μL of culture media at 1×10^4 cells per well and incubated at 37° C. overnight. Serial dilutions of compounds (in total volume of 50 μL of culture media) were added to the cells and incubated at 37° C. for 24 hours. Each plate included cells treated with DMSO as high controls and cells treated with 20 μM of the reference compound K-975 (a known TEAD inhibitor)^3 as low controls. Cell viability was assayed by the addition of 25 μL of CellTiter-Fluor reagent (Promega) followed by a 30-minute incubation at 37° C. and quantification of the fluorescence signal (Ex400/Em505). Subsequently, luciferase expression was assayed by the addition of 25 μL of ONE-Glo reagent (Promega) followed by a 10-minute incubation at room temperature and quantification of the luminescence signal. The luminescence signal was normalized to the fluorescence signal to correct for any loss in cell viability over the 24-hour compound incubation period. The percentage of inhibition of normalized luminescence signal, indicative of compound-mediated inhibition of TEAD-dependent transcription, at individual compound concentrations relative to high and low controls was calculated. The data were analyzed by using nonlinear regression to generate IC50 values for individual compounds.

SMILES | IC50 [µM]
C=CC(=O)N1CCc2ccc(OCc3ccc(F)cc3)cc2C1 [P-0001, 1-(7-((4-fluorobenzyl)oxy)-3,4-dihydroisoquinolin-2(1H)-yl)prop-2-en-1-one] | 0.001 to 0.5
C=CC(=O)N1CCc2ccc(OCc3ccccc3)cc2C1 [P-0002, 1-(7-(benzyloxy)-3,4-dihydroisoquinolin-2(1H)-yl)prop-2-en-1-one] | 0.001 to 0.5
C=CC(=O)N1CCc2cccc(Nc3cccc(F)c3)c2C1 [P-0003, 1-(8-((3-fluorophenyl)amino)-3,4-dihydroisoquinolin-2(1H)-yl)prop-2-en-1-one] | 0.5 to 20
C=CC(=O)N1CCc2ccc(Nc3cccc(F)c3)cc2C1 [P-0004, 1-(7-((3-fluorophenyl)amino)-3,4-dihydroisoquinolin-2(1H)-yl)prop-2-en-1-one] | 0.001 to 0.5
C=CC(=O)N1CCc2cccc(Oc3cccc(F)c3)c2C1 [P-0005, 1-(8-(3-fluorophenoxy)-3,4-dihydroisoquinolin-2(1H)-yl)prop-2-en-1-one] | 0.001 to 0.5
C=CC(=O)N1CCc2ccc(Oc3cccc(F)c3)cc2C1 [P-0006, 1-(7-(3-fluorophenoxy)-3,4-dihydroisoquinolin-2(1H)-yl)prop-2-en-1-one] | 0.001 to 0.5
C=CC(=O)N1CCc2ccc(Oc3ccccc3)cc2C1 [P-0007, 1-(7-phenoxy-3,4-dihydroisoquinolin-2(1H)-yl)prop-2-en-1-one] | 0.001 to 0.5
C=CC(=O)N1CCc2ccc(Oc3ccc(F)cc3F)cc2C1 [P-0008, 1-(7-(2,4-difluorophenoxy)-3,4-dihydroisoquinolin-2(1H)-yl)prop-2-en-1-one] | 0.001 to 0.5
C=CC(=O)N1CCc2ccc(OC3CCOCC3)cc2C1 [P-0009, 1-(7-((tetrahydro-2H-pyran-4-yl)oxy)-3,4-dihydroisoquinolin-2(1H)-yl)prop-2-en-1-one] | 0.001 to 0.5
C=CC(=O)N1CCc2ccc(Nc3ccccc3)cc2C1 [P-0010, 1-(7-(phenylamino)-3,4-dihydroisoquinolin-2(1H)-yl)prop-2-en-1-one] | 0.001 to 0.5
C=CC(=O)N1CCc2ccc(Nc3ccnc(C(F)(F)F)c3)cc2C1 [P-0011, 1-(7-((2-(trifluoromethyl)pyridin-4-yl)amino)-3,4-dihydroisoquinolin-2(1H)-yl)prop-2-en-1-one] | 0.5 to 20
C=CC(=O)N1CCc2ccc(Nc3ccc(C(F)(F)F)nc3)cc2C1 [P-0012, 1-(7-((6-(trifluoromethyl)pyridin-3-yl)amino)-3,4-dihydroisoquinolin-2(1H)-yl)prop-2-en-1-one] | 0.5 to 20
C=CC(=O)N1CCc2ccc(Oc3ccc(F)cc3)cc2C1 [P-0013, 1-(7-(4-fluorophenoxy)-3,4-dihydroisoquinolin-2(1H)-yl)prop-2-en-1-one] | 0.001 to 0.5
C=CC(=O)N1CCc2ccc(Oc3cccc(Cl)c3)cc2C1 [P-0014, 1-(7-(3-chlorophenoxy)-3,4-dihydroisoquinolin-2(1H)-yl)prop-2-en-1-one] | 0.001 to 0.5
C=CC(=O)N1CCc2ccc(Oc3ccc(Cl)cc3)cc2C1 [P-0015, 1-(7-(4-chlorophenoxy)-3,4-dihydroisoquinolin-2(1H)-yl)prop-2-en-1-one] | 0.001 to 0.5
C=CC(=O)N1CCc2ccc(Oc3ccc(F)c(F)c3)cc2C1 [P-0016, 1-(7-(3,4-difluorophenoxy)-3,4-dihydroisoquinolin-2(1H)-yl)prop-2-en-1-one] | 0.001 to 0.5
C=CC(=O)N1CCc2ccc(Oc3cccc(C(F)(F)F)c3)cc2C1 [P-0017, 1-(7-(3-(trifluoromethyl)phenoxy)-3,4-dihydroisoquinolin-2(1H)-yl)prop-2-en-1-one] | 0.001 to 0.5
C=CC(=O)N1CCc2ccc(Oc3ccc(C(F)(F)F)cc3)cc2C1 [P-0018, 1-(7-(4-(trifluoromethyl)phenoxy)-3,4-dihydroisoquinolin-2(1H)-yl)prop-2-en-1-one] | 0.001 to 0.5
C=CC(=O)N1CCc2ccc(Oc3cccnc3)cc2C1 [P-019, 1-(7-(pyridin-3-yloxy)-3,4-dihydroisoquinolin-2(1H)-yl)prop-2-en-1-one] | 0.001 to 0.5
C=CC(=O)N1CCc2ccc(OC3CC(F)(F)C3)cc2C1 [P-0020, 1-(7-(3,3-difluorocyclobutoxy)-3,4-dihydroisoquinolin-2(1H)-yl)prop-2-en-1-one] | 0.001 to 0.5
C=CC(=O)N1CCc2ccc(OC34CC5CC(CC(C5)C3)C4)cc2C1 [P-0021, 1-(7-(((3R,5R)-adamantan-1-yl)oxy)-3,4-dihydroisoquinolin-2(1H)-yl)prop-2-en-1-one] | 0.001 to 0.5

SMILES | IC50 [µM]
C=CC(=O)N1CCc2ccc(Nc3ccccc3F)cc2C1 [P-0022, 1-(7-((2-fluorophenyl)amino)-3,4-dihydroisoquinolin-2(1H)-yl)prop-2-en-1-one] | 0.001 to 0.5
C=CC(=O)N1CCc2ccc(Nc3ccc(F)cc3)cc2C1 [P-0023, 1-(7-((4-fluorophenyl)amino)-3,4-dihydroisoquinolin-2(1H)-yl)prop-2-en-1-one] | 0.001 to 0.5
C=CC(=O)N1CCc2ccc(Nc3cccc(Cl)c3)cc2C1 [P-0024, 1-(7-((3-chlorophenyl)amino)-3,4-dihydroisoquinolin-2(1H)-yl)prop-2-en-1-one] | 0.001 to 0.5
C=CC(=O)N1CCc2ccc(Nc3cccc(C(F)(F)F)c3)cc2C1 [P-0025, 1-(7-((3-(trifluoromethyl)phenyl)amino) -3,4-dihydroisoquinolin-2(1H)-yl)prop-2-en-1-one] | 0.001 to 0.5
C=CC(=O)N1CCc2ccc(N(C)c3ccccc3)cc2C1 [P-0026, 1-(7-(methyl(phenyl)amino)-3,4-dihydroisoquinolin-2(1H)-yl)prop-2-en-1-one] | 0.001 to 0.5
C=CC(=O)N1CCc2ccc(Oc3ccc(C(F)(F)F)nc3)cc2C1 [P-0027, 1-(7-((6-(trifluoromethyl)pyridin-3-yl)oxy)-3,4-dihydroisoquinolin-2(1H)-yl)prop-2-en-1-one] | 0.001 to 0.5
C=CC(=O)N1CCc2ccc(OC3CCN(S(C)(=O)=O)CC3)cc2C1 [P-0028, 1-(7-((1-(methylsulfonyl)piperidin-4-yl)oxy)-3,4-dihydroisoquinolin-2(1H)-yl)prop-2-en-1-one] | 0.5 to 20
C=CC(=O)N1CCc2ccc(NC3CCC(F)(F)CC3)cc2C1 [P-0029, 1-(7-((4,4-difluorocyclohexyl)amino)-3,4-dihydroisoquinolin-2(1H)-yl)prop-2-en-1-one] | 0.001 to 0.5
C=CC(=O)N1CCc2cc(F)c(Oc3ccccc3)cc2C1 [P-0030, 1-(6-fluoro-7-phenoxy-3,4-dihydroisoquinolin-2(1H)-yl)prop-2-en-1-one] | 0.001 to 0.5
C=CC(=O)N1CCc2cc(F)c(Oc3cccc(F)c3)cc2C1 [P-0031, 1-(6-fluoro-7-(3-fluorophenoxy)-3,4-dihydroisoquinolin-2(1H)-yl)prop-2-en-1-one] | 0.001 to 0.5
C=CC(=O)N1CCc2cc(F)c(Oc3ccc(F)cc3)cc2C1 [P-0032, 1-(6-fluoro-7-(4-fluorophenoxy)-3,4-dihydroisoquinolin-2(1H)-yl)prop-2-en-1-one] | 0.001 to 0.5
C=CC(=O)N1CCc2ccc(Cc3ccccc3)cc2C1 [P-0033, 1-(7-benzyl-3,4-dihydroisoquinolin-2(1H)-yl)prop-2-en-1-one] | 0.001 to 0.5
C=CC(=O)N1CCc2ccc(Cc3cccc(F)c3)cc2C1 [P-0034, 1-(7-(3-fluorobenzyl)-3,4-dihydroisoquinolin-2(1H)-yl)prop-2-en-1-one] | 0.001 to 0.5
C=CC(=O)N1CCc2ccc(Cc3ccc(F)cc3)cc2C1 [P-0035, 1-(7-(4-fluorobenzyl)-3,4-dihydroisoquinolin-2(1H)-yl)prop-2-en-1-one] | 0.001 to 0.5
C=CC(=O)N1CCc2ccc(Oc3ccc(C)nc3)cc2C1 [P-0036, 1-(7-((6-methylpyridin-3-yl)oxy)-3,4-dihydroisoquinolin-2(1H)-yl)prop-2-en-1-one] | 0.001 to 0.5
C=C(F)C(=O)N1CCc2ccc(Oc3cccc(F)c3)cc2C1 [P-0037, 2-fluoro-1-(7-(3-fluorophenoxy)-3,4-dihydroisoquinolin-2(1H)-yl)prop-2-en-1-one] | 0.001 to 0.5
C=C(CO)C(=O)N1CCc2ccc(Oc3cccc(F)c3)cc2C1 [P-0038, 1-(7-(3-fluorophenoxy)-3,4-dihydroisoquinolin-2(1H)-yl)-2-(hydroxymethyl)prop-2-en-1-one] | 0.001 to 0.5
O=C(/C=C/CN1CCOCC1)N1CCc2ccc(Oc3cccc(F)c3)cc2C1 [P-0039, (E)-1-(7-(3-fluorophenoxy)-3,4-dihydroisoquinolin-2(1H)-yl)-4-morpholinobut-2-en-1-one] | > 20
CN1CCN(C/C=C/C(=O)N2CCc3ccc(Oc4cccc(F)c4)cc3C2)CC1 [P-0040, (E)-1-(7-(3-fluorophenoxy)-3,4-dihydroisoquinolin-2(1H)-yl)-4-(4-methylpiperazin-1-yl)but-2-en-1-one] | > 20
C=CC(=O)N1CCc2cc(C)c(Oc3ccccc3)cc2C1 [P-0041, 1-(6-methyl-7-phenoxy-3,4-dihydroisoquinolin-2(1H)-yl)prop-2-en-1-one] | 0.001 to 0.5

Source: US20240174659A1, “COMPOUNDS AND METHODS FOR YAP/TEAD MODULATION AND INDICATIONS THEREFOR” (Opna Bio SA, priority 2021, published 2024)
